Assays:
[1] = system: flies expressing polyQ-expanded AR in the eye (GMR>UAS-AR52Q); experiment: SBMA fly eye degeneration; format: in vivo, Drosophila; settings: flies reared on food containing DHT + compound
Excerpt: (§1) UAS-AR52Q, UAS-AR52Q-K720A, and UAS-AR66Q-E897K fly stocks were generated as previously described^8. Fly stocks were crossed to various GAL4 driver lines (ELAV-GAL4 for pan-neuronal, OK371-GAL4 for motor neuron, GMR-GAL4 for eye) to induce expression of the AR transgene in a tissue-specific manner in fly vials containing fly food with either vehicle (1% ethanol +/−0.1% DMSO) or drugs. Upon the presence of progeny, parental flies were removed, and F1 flies were scored for phenotypic analysis. Viability was determined as previously described^40. Briefly, the population frequency of adult F1 SBMA flies (ELAV>UAS-AR52Q or OK371>UAS-AR52Q) and control flies (GAL4-ELAV; CyO-GFP) were determined by the presence or absence of the CyO phenotypic marker. At least three independent biological replicates (F0 crosses) were performed with new drug/food preparations for each treatment group, and a total of at least 50 flies were scored for each treatment group. To determine locomotor activity of SBMA flies, adult F1 flies (OK371>UAS-AR52Q) reared on food containing vehicle or drug were allowed to walk for 90 seconds in one well of a 12-well tissue culture plate while video was recorded using a Leica M205C stereomicroscope and Leica DFC320 digital camera. Videos were recorded for at least 15 flies per treatment group. […]

[2] = system: flies expressing polyQ-expanded AR in motor neurons (OK371>UAS-AR52Q); experiment: Locomotor activity of adult SBMA flies; format: in vivo, Drosophila; settings: 1 mM DHT+100 μM compound
Excerpt: as §1

AR121Q mice = experiment: Large-scale blinded multi-dose preclinical trial in AR121Q (SBMA) mice; format: in vivo, mouse
Method: To determine the efficacy of TA and/or MEPB in a mouse model of SBMA, we first performed a pilot study. Five mice were assigned to each drug treatment group: 50 mg/kg TA, 50 mg/kg MEPB, or vehicle (1% DMSO in corn oil). Drug identities were coded to ensure investigator blinding, and drugs were administered three times per week (Monday, Wednesday, and Friday) by intraperitoneal injection from 3 to 8 weeks of age. At 8 weeks, all mice were sacrificed and tissues were collected for pathologic analysis. To fully characterize the efficacy of MEPB in SBMA mice, a large-scale, multi-dose preclinical trial was performed. A power analysis (Table 1) was performed based on the pilot study data to determine the adequate number of mice required for 80% power. At least 10 mice were assigned to each drug treatment group: 50 mg/kg MEPB, 100 mg/kg MEPB, and vehicle (1% DMSO in corn oil). Drug identities were coded to ensure investigator blinding, and drugs were administered three times per week (Monday, Wednesday, and Friday) by intraperitoneal injections from 4 weeks until 30 weeks of age.
Body weight, rotarod activity, and grip strength data were collected weekly. Footprint analysis and clasping phenotype were assessed at 7 and 8 weeks of age. Body weight was measured using a standard laboratory scale (Fisher Scientific). Rotarod activity analysis was performed on an accelerating rotarod apparatus (IITC Life Science) using a two-day, weekly protocol. Mice were trained on the first day with one session set at 4 rpm for 5 min. The following day, mice were placed on the apparatus, rotation speed was set to accelerate from 4-40 rpm at a rate of 0.1 rpm/s, and the latency to fall was recorded for four separate trials per mouse. Mice were given a 15-min rest period between each trial. Grip strength was measured using a grip strength meter (Bioseb). Grip strength was measured as grams of force in six repeated measurements for forepaws and hindpaws of each animal. To perform gait/footprint analysis, the forepaws and hindpaws of each animal were dipped in red and blue, respectively, water-soluble, non-toxic paint. The animal was then placed in a 70-cm long tunnel lined on the bottom with Whatman filter paper, the entrance was sealed, and the animal was allowed to walk through one time. Footprints were scanned and analyzed with Image J for stride length and forepaw/hindpaw overlap^41. To determine clasping phenotype, mice were recorded using an Apple iPod camera (iOS version 6.1.6) for approximately 60 seconds and still frames were extracted using ImageJ.
A separate cohort of five mice per treatment group was generated for pathologic and biochemical analysis. Mice were anesthetized by isoflurane inhalation and transcardially perfused with either PBS for frozen tissue samples or 10% formalin for fixed tissue samples. Selected tissues (brain, spinal cord, gastrocnemius/soleus muscle, testes, and liver) were dissected and either snap-frozen in liquid nitrogen or processed for paraffin embedding/sectioning. Tissue sections were stained with hematoxylin and eosin, toluidine blue, or Gomori trichrome to ascertain overall morphology and pathologic changes. To determine AR staining and colocalization patterns, tissue sections were stained with anti-AR (N20, Santa Cruz), anti-polyQ (5TF1-1C2, EMD Millipore), or anti-ubiquitin (Cell Signaling Technology) antibodies. To quantify type I and type II myofibers, hindlimb tissue sections were stained with myosin heavy chain-slow twitch and myosin heavy chain-fast twitch antibodies (Leica Biosystems), respectively. For the purposes of counting ChAT-positive neurons, three stepped sections separated by 50 μm were analyzed for the cervical, thoracic, and lumbosacral areas of spinal cords. The slides contained three to six tissue sections at each level and were labeled with an anti-ChAT antibody (EMD Millipore). […]

[3] = SBMA mice, both low-dose (50 mg/kg) and high-dose (100 mg/kg)
[4] = SBMA mice, high-dose (100 mg/kg)
[5] = male SBMA mice, low-dose (50 mg/kg) and high-dose (100 mg/kg) intraperitoneally three times per week from 4 weeks of age

Cc1ccc(OCCn2c(SCCOc3ccccc3)nc3ccccc32)cc1 [MEPB, 1-[2-(4-methylphenoxy)ethyl]-2-[(2-phenoxyethyl)sulfanyl]-1H-benzimidazole]
DHT-dependent eye degeneration [1]: mitigated | locomotor function (displacement and velocity of walking) [2]: significantly restored locomotor function | assays of neuromuscular function in NTG control mice (AR121Q mice; NTG control mice, low-dose or high-dose): had no measurable effect | blood chemistry (AR121Q mice; NTG or SBMA mice, low-dose or high-dose): did not significantly change blood chemistry | colocalization of NCAM/PSA-NCAM staining (neurogenic atrophy) (AR121Q mice; SBMA mice vs vehicle-treated SBMA mice, both low-dose (50 mg/kg) and high-dose (100 mg/kg)): significantly reduced colocalization of NCAM/PSA-NCAM staining | degenerating myofibers in skeletal muscle (AR121Q mice; [3]): significantly reduced | frequency of type I myofibers (AR121Q mice; [3]): restored the frequency of type I myofibers to levels observed in NTG control mice | presence of ubiquitin-positive nuclear inclusions in the spinal cord (AR121Q mice; [3]): significantly reduced | testicular atrophy (AR121Q mice; [3]): reversed | type II myofiber frequency (AR121Q mice; [3]): remained unaffected | QOL score (AR121Q mice; [4]): significantly improved the QOL | loss of spinal cord motor neurons (AR121Q mice; [4]): prevent the loss of spinal cord motor neurons | survival (AR121Q mice; SBMA mice, low-dose (50 mg/kg) and high-dose (100 mg/kg)): Neither low-dose nor high-dose MEPB treatment significantly altered survival of SBMA mice | gait and hindlimb clasping (AR121Q mice; male SBMA mice, low-dose (50 mg/kg) and high-dose (100 mg/kg)): qualitatively improved gait and hindlimb clasping | body weight (AR121Q mice; [5]): significantly augmented | grip strength (AR121Q mice; [5]): significantly augmented | rotarod activity (AR121Q mice; [5]): significantly augmented | expression level of endogenous mouse AR or transgenic human AR (AR121Q mice; muscle and spinal cords of AR121Q mice, 50 mg/kg or 100 mg/kg): did not statistically significantly change

— patent US11707449B2, “Methods and formulations for treatment of spinobulbar muscular atrophy” (ST. JUDE CHILDREN'S RESEARCH HOSPITAL, INC., priority 2017, dated 2023)
